Measured values as given in patent US20240117431A1, “STEM-CELL BASED BIOMARKER DISCOVERY” (THE REGENTS OF THE UNIVERSITY OF CALIFORNIA, priority 2020, published 2024).

Tested on: UPRT(+)-microglia brains
Assay: In vivo labeling of brain RNA in mice transplanted with UPRT-expressing human microglia, biotin dot blot
Conditions: IP close to 150 mg/kg, 24-48 hours, FIG. 14
Description: 5-vinyl-uracil (Alfa Aesar #4437903) was prepared in sterile conditions at 4 times the concentration in 100% DMSO, then diluted to 25% DMSO by adding corn oil to a final concentration of 500 mM. The mixture was heated to 37° C. for […] until homogenous. Mice are weighed before intraperitoneal injection (IP) injection to ensure close to 150 mg/kg are injected per treatment. For an (˜20 g) adult mouse typically 60-70 μl are IP injected per treatment. Mice are monitored for signs of distress. After 24-48 hours of treatment, mice were sacrificed and brains were immediately placed into 2 ml of RNAlater and left in 4° C. for 3-5 days. After removing brains from RNAlater, they were homogenized with RNAse-free 1.4 mm steel beads (Next Advance SSB14B-RNA) for 60 seconds and centrifuged at 4° C. for 5 min, maximum speed to separate the fatty layer. The bottom layer is collected, homogenized with 200 ul chloroform and centrifuged for 20 minutes, at 4° C. The aqueous layer is collected and 500 ul isopropanol added. After centrifugation for 30 minutes 4° C., the RNA pellet is washed in 70% Ethanol twice. After removing ethanol, the RNA pellet is resuspended in nuclease-free water and nanodrop to determine the concentration. From each sample, 15 μg of RNA was subjected in tetrazine-biotin ligation at 37° C., 500 RPM for 3 hours. The biotinylated RNA was purified with RNA Zymo Clean and Concentrator #5 and eluted with nuclease-free water. 2 μg of purified RNA was spotted onto a N+ Hybond membrane and UV-crosslinked at 254 nm (120,000 uJ). Membrane is blocked in blocking buffer (0.12 M NaCl, 0.016 M Na2HPO4, 0.008 M NaH2PO4, 0.17 M SDS) and followed by incubation with high sensitivity streptavidin-HRP (Fisher Scientific, Cat #: P121130) at 1:5000 dilution in blocking buffer for 5 minutes. The membrane was washed twice in a Wash A buffer (1:10 dilution of blocking buffer) and twice in Wash B buffer (Tris-saline buffer). It was then incubated for 1-5 min. in ECL Chemiluminescent Substrate (Fisher Scientific, Cat #: P132106) and imaged on a ChemiDoc MP imaging system (Bio-Rad). […]

C=Cc1c[nH]c(=O)[nH]c1=O [compound 2, 5-Vinylpyrimidine-2,4(1H,3H)-dione]
incorporation into brain RNA, UPRT(+)-microglia transplanted: observable signals | incorporation into brain RNA, UPRT(−)-microglia brains: significant biotin signal was not observed
